This passage reports IC50 results from patent publication US10774051B2, “6-membered heterocyclic derivatives and pharmaceutical composition comprising the same” (Shionogi & Co., Ltd., priority 2015, dated 2020).

By IC50 is commonly meant the concentration at which inhibition is half-maximal.

One assay concerns the target human P2X7 receptor (Homo sapiens, UniProt Q99572, R270H/Y155H). The assay is described as follows: Evaluation of human P2X7 receptor inhibitory activity (Yo-Pro uptake, BzATP stimulation, FLIPR TETRA). Type of assay: cell-based. The note with it: 1321N1 cells stably expressing human P2X7 receptor; BzATP stimulation, Yo-Pro uptake; read-out: IC50 (antagonistic activity for the human P2X7 receptor). The gist of the method: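 1321N1 cells stably expressing human P2X7 (T606C/G952A SNP variant), in HBSS buffer pH 7.4-7.5 with Yo-Pro, stimulated with BzATP; compound added 8 min after agonist. Fluorescence followed for 20 min on FLIPR; max-minus-min change gave % inhibition, IC50 by logistic fit.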
Consider `COc1cnc(Nc2cc(C)cc3[nH]ccc23)n(Cc2ccc(F)c(Cl)c2)c1=O` [Compound I-0989], for which the half-inhibitory concentration (IC50) was found to be 300 nM.

In the case of `Cc1nc2cc(C)c(Nc3nc(=O)c(F)cn3Cc3ccccc3)cc2s1` [Compound I-0788], the IC50 was 12 nM.

Regarding `COc1cnc(Nc2cc3sc(C)nc3cc2C)n(Cc2ccc(F)c(Cl)c2)c1=O` [Compound I-0987], the IC50 was found to be 110 nM.

Regarding `COc1cn(Cc2ccccc2C(F)(F)F)c(Nc2cccc(Cl)c2C)nc1=O` [Compound I-0294], the half-maximal inhibitory concentration (IC50) came to 250 nM.

Regarding `COc1cn(Cc2ccc(F)c(Cl)c2)c(Nc2cc3c(cc2C)OCC=C3)nc1=O` [Compound I-0912], the IC50 was found to be 22 nM.

The same assay, now with this note: 1321N1 cells stably expressing human P2X7 receptor; BzATP stimulation, Yo-Pro uptake; read-out: IC50 (antagonistic activity for the human P2X7 receptor), class symbol.
As for `COc1cn(Cc2ccc(F)c(F)c2)c(Nc2cc(OCC(F)(F)F)ccc2C)nc1=O` [Compound I-0495], the 50% inhibitory concentration (IC50) fell in the range of 10 to 100 nM.

`COc1cc(C)c(Nc2nc(=O)c(F)cn2Cc2ccc(F)cc2)cc1C` [Compound I-0319]: the half-inhibitory concentration (IC50) is < 10 nM.

Turning to `COc1cc(C)c(Nc2nc(=O)c(F)cn2Cc2ccccc2)cc1OC` [Compound I-0183], the IC50 is 10 to 100 nM.

As to `COc1cn(Cc2cc(F)c(F)c(F)c2)c(Nc2ccc(C)cc2C)nc1=O` [Compound I-0570], the 50% inhibitory concentration (IC50) is < 10 nM.

For `COc1cn(Cc2ccc(F)c(F)c2)c(Nc2cc(C)c(C)cc2C)nc1=O` [Compound I-0277], the IC50 is < 10 nM.

`CCOC(=O)Cc1cn(Cc2ccccc2)c(Nc2cccc(Cl)c2C)nc1=O` [Compound I-0023]: the IC50 was 100 to 500 nM.

With `COc1cn(Cc2cc(F)cc(Cl)c2)c(Nc2cc(C)ccc2C)nc1=O` [Compound I-0445], the IC50 is 10 to 100 nM.

`COc1cn(Cc2cc(F)c(F)c(F)c2)c(Nc2cc(C)c(Cl)cc2C)nc1=O` [Compound I-0575]: the IC50 was < 10 nM.

For the compound `CCc1ccccc1Nc1nc(=O)c(F)cn1Cc1cccc(Cl)c1` [Compound I-0223], the IC50 fell in the range of 10 to 100 nM.

Regarding `COc1cn(Cc2ccc(F)c(Cl)c2)c(Nc2cccc(C)c2C)nc1=O` [Compound I-0325], the IC50 is < 10 nM.

On to `COc1cn(Cc2cccc(F)c2)c(Nc2cc(C)c(Cl)cc2C)nc1=O` [Compound I-0168], for which the IC50 was < 10 nM.

Regarding `CCc1cc(OC)ccc1Nc1nc(=O)c(OC)cn1Cc1cc(F)cc(F)c1` [Compound I-0440], the IC50 is < 10 nM.

Turning to `COc1cn(Cc2cc(F)cc(Cl)c2)c(Nc2cccc(C)c2Cl)nc1=O` [Compound I-0577], the 50% inhibitory concentration (IC50) was 10 to 100 nM.

Take `COc1cc(C)cc(Nc2nc(=O)c(OC)cn2Cc2cc(F)cc(Cl)c2)c1C` [Compound I-0395]: the IC50 was < 10 nM.

As to `CCc1ccc(F)cc1Nc1nc(=O)c(OC)cn1Cc1cccc(Cl)c1` [Compound I-0566], the IC50 was in the range of 10 to 100 nM.

For the compound `COc1cn(Cc2cccc(Cl)c2)c(Nc2cccc(N(C)C)c2C)nc1=O` [Compound I-0432], the IC50 lay within 10 to 100 nM.

For the compound `COc1cc(Nc2nc(=O)c(OC)cn2Cc2cccc(Cl)c2)c(C)cc1Cl` [Compound I-0534], the IC50 is < 10 nM.

Turning to `COc1cn(Cc2ccccc2)c(Nc2cc(C(C)(C)C)ccc2C)nc1=O` [Compound I-0500], the half-maximal inhibitory concentration (IC50) was 10 to 100 nM.

Regarding `COc1cn(Cc2ccccc2)c(NCc2c(C)cccc2C)nc1=O` [Compound I-0131], the concentration for half-maximal inhibition (IC50) lay in the range of 100 to 500 nM.

Regarding `Cc1c(Cl)cccc1Nc1nc(=O)c(Br)cn1Cc1ccccc1` [Compound I-0027], the IC50 is 10 to 100 nM.

As for `CCc1c(Cl)cccc1Nc1nc(=O)c(OC)cn1Cc1ccccc1` [Compound I-0215], the IC50 was < 10 nM.

Turning to `COc1cn(Cc2ccccc2OC(F)F)c(Nc2cccc(Cl)c2C)nc1=O` [Compound I-0474], the IC50 was < 10 nM.

With `CCc1ccccc1Nc1nc(=O)c(OC)cn1Cc1ccc(F)cc1` [Compound I-0200], the IC50 lay in the range of 10 to 100 nM.

For the compound `Cc1c(Cl)cccc1Nc1nc(=O)c(C(F)(F)F)cn1Cc1ccccc1` [Compound I-0216], the concentration for half-maximal inhibition (IC50) lay within 100 to 500 nM.

Consider `CCc1cc(OC)c(OC)cc1Nc1nc(=O)c(OC)cn1Cc1ccc(F)c(Cl)c1` [Compound I-0273], for which the IC50 was < 10 nM.

In the case of `COc1cn(Cc2cc(F)cc(F)c2)c(Nc2cc(C)c(Cl)cc2C)nc1=O` [Compound I-0378], the 50% inhibitory concentration (IC50) is < 10 nM.

Take `COc1cc(C)c(Nc2nc(=O)c(F)cn2Cc2ccc(F)c(Cl)c2)cc1OC` [Compound I-0309]: the IC50 was < 10 nM.

Consider `COc1cn(Cc2ccccc2)c(Nc2cc(Cl)ccc2C)nc1=O` [Compound I-0092], for which the IC50 was in the range of 100 to 500 nM.

Consider `COc1cn(Cc2cc(F)cc(F)c2)c(Nc2cccc(C)c2Cl)nc1=O` [Compound I-0505], for which the IC50 lay within 10 to 100 nM.

As for `COc1cn(Cc2ccc(F)c(Cl)c2)c(Nc2cc(OC(C)C)ccc2C)nc1=O` [Compound I-0321], the IC50 lay in the range of 10 to 100 nM.

As to `CCc1ccc(OC)cc1Nc1nc(=O)c(OC)cn1Cc1ccc(F)c(Cl)c1` [Compound I-0246], the IC50 was < 10 nM.

With `COc1cc(C)c(Nc2nc(=O)c(OC)cn2Cc2ccc(F)c(Cl)c2)cc1OC` [Compound I-0229], the IC50 is < 10 nM.

Turning to `CCc1ccc(F)cc1Nc1nc(=O)c(OC)cn1Cc1ccc(F)c(Cl)c1` [Compound I-0567], the half-inhibitory concentration (IC50) was in the range of 10 to 100 nM.

Regarding `COc1cn(Cc2cc(F)cc(F)c2)c(Nc2cc(C)ccc2C)nc1=O` [Compound I-0436], the IC50 is < 10 nM.

The same assay, now with this note: antagonistic activity for the human P2X7 receptor; read-out: IC50.
For `COc1cn(Cc2cc(F)c(F)c(F)c2)c(Nc2cc(-c3cscn3)ccc2C)nc1=O` [Compound I-0802], the IC50 was < 10 nM.

As to `COc1cc(Nc2nc(=O)c(F)cn2Cc2ccc(F)c(F)c2)c(C)cc1F` [Compound I-1052], the 50% inhibitory concentration (IC50) was < 10 nM.

As to `COc1cc(C)cc(Nc2nc(=O)c(OC)cn2Cc2cc(F)c(F)c(F)c2)c1C` [Compound I-0601], the half-inhibitory concentration (IC50) was < 10 nM.

As to `COc1cn(Cc2ccc(F)c(Cl)c2)c(Nc2cc3c(cc2C)OCCC3=O)nc1=O` [Compound I-0930], the IC50 was in the range of 100 to 500 nM.

Turning to `Cc1c(Nc2nc(=O)c(F)cn2Cc2cc(F)cc(F)c2)ccc2[nH]ccc12` [Compound I-1119], the 50% inhibitory concentration (IC50) was < 10 nM.

Turning to `COCc1cn(Cc2cc(F)c(F)c(F)c2)c(Nc2cc(C)cc3[nH]ccc23)nc1=O` [Compound I-1155], the IC50 is < 10 nM.

Regarding `COc1cn(Cc2cc(F)cc(F)c2)c(Nc2cc3c(cc2C)OCO3)nc1=O` [Compound I-0741], the IC50 was 10 to 100 nM.

On to `CCc1cc(F)c(OC)cc1Nc1nc(=O)c(OC)cn1Cc1ccc(F)c(F)c1` [Compound I-0815], for which the IC50 is < 10 nM.

Turning to `COc1cn(Cc2ccc(F)c(F)c2)c(Nc2cc(-c3ncco3)ccc2C)nc1=O` [Compound I-0604], the 50% inhibitory concentration (IC50) is < 10 nM.

As for `CCOc1ccc(Nc2nc(=O)c(F)cn2Cc2ccc(F)c(Cl)c2)c(C)c1` [Compound I-1035], the 50% inhibitory concentration (IC50) was 10 to 100 nM.

Take `Cc1ccc(N2CCCC2=O)cc1Nc1nc(=O)c(F)cn1Cc1cc(F)cc(F)c1` [Compound I-0700]: the IC50 was < 10 nM.

`C=C(C)c1ccc(C)c(Nc2nc(=O)c(OC)cn2Cc2cc(F)cc(F)c2)c1` [Compound I-0749]: the IC50 lay within 10 to 100 nM.

On to `COc1ccc(Nc2nc(=O)cnn2Cc2cc(F)c(F)c(F)c2)c(C)c1` [Compound I-1283], for which the IC50 is < 10 nM.

Consider `CCOc1ccc(F)c(Nc2nc(=O)c(F)cn2Cc2cc(F)c(F)c(F)c2)c1` [Compound I-1215], for which the IC50 is < 10 nM.

As to `CCOc1ccc(Nc2nc(=O)c(OC)cn2Cc2cc(F)cc(Cl)c2)c(C)c1` [Compound I-0681], the 50% inhibitory concentration (IC50) was 10 to 100 nM.

Take `COc1cc(C)c(Nc2nc(=O)c(F)cn2Cc2cc(F)c(F)c(F)c2)cc1C` [Compound I-1180]: the IC50 is < 10 nM.

Consider `COc1cn(Cc2cc(F)c(F)c(F)c2)c(Nc2ccc(OC(F)(F)F)cc2C)nc1=O` [Compound I-0596], for which the half-inhibitory concentration (IC50) was in the range of 10 to 100 nM.

For `COc1cn(Cc2cc(F)c(F)c(F)c2)c(Nc2cc(OC(C)C)ccc2C)nc1=O` [Compound I-0633], the IC50 was < 10 nM.

`Cc1cc(OC(F)F)ccc1Nc1nc(=O)c(F)cn1Cc1cc(F)c(F)c(F)c1` [Compound I-1039]: the IC50 fell in the range of 10 to 100 nM.

For `COc1cn(Cc2ccccc2)c(Nc2cc(-c3ccnn3C)ccc2C)nc1=O` [Compound I-0782], the IC50 is 100 to 500 nM.

With `COc1cc(Nc2nc(=O)c(F)cn2Cc2cc(F)cc(F)c2)c(C)cc1Cl` [Compound I-1005], the IC50 is < 10 nM.

Regarding `CCc1cc2c(cc1Nc1nc(=O)c(OC)cn1Cc1cc(F)cc(F)c1)OCO2` [Compound I-0743], the IC50 lay in the range of 10 to 100 nM.

Consider `COCc1cn(Cc2cc(F)c(F)c(F)c2)c(Nc2cc(-c3ncco3)ccc2C)nc1=O` [Compound I-1129], for which the IC50 was in the range of 10 to 100 nM.

As to `Cc1cc2c(cc1Nc1nc(=O)c(F)cn1Cc1ccc(F)c(Cl)c1)CCO2` [Compound I-1073], the half-maximal inhibitory concentration (IC50) is < 10 nM.

On to `COc1cn(Cc2cc(F)cc(Cl)c2)c(Nc2cc3sc(C)nc3cc2C)nc1=O` [Compound I-0669], for which the IC50 is 10 to 100 nM.

In the case of `COc1ccc(Nc2nc(=O)cc(C)n2Cc2cc(F)c(F)c(F)c2)c(C)c1` [Compound I-1167], the 50% inhibitory concentration (IC50) was < 10 nM.

With `COc1cn(Cc2ccc(F)c(Cl)c2)c(Nc2cc(OC(F)F)c(C)cc2C)nc1=O` [Compound I-0876], the IC50 is < 10 nM.

For `CCc1cc(OC)c(OC)cc1Nc1nc(=O)c(F)cn1Cc1cc(F)c(F)c(F)c1` [Compound I-1220], the concentration for half-maximal inhibition (IC50) is < 10 nM.

For `Cc1ccc(OCCO)cc1Nc1nc(=O)c(F)cn1Cc1cc(F)c(F)c(F)c1` [Compound I-1205], the IC50 was < 10 nM.

Turning to `CCOc1ccc(C)c(Nc2nc(=O)c(F)cn2Cc2cc(F)cc(F)c2)c1` [Compound I-1002], the IC50 was in the range of 10 to 100 nM.

In the case of `Cc1cc(Nc2nc(=O)c(F)cn2Cc2cc(F)cc(F)c2)c(C)cc1Cl` [Compound I-1206], the IC50 is < 10 nM.

As for `Cc1cc(Nc2nc(=O)c(F)cn2Cc2cc(F)cc(F)c2)c(C)nc1OC(F)F` [Compound I-1234], the IC50 was < 10 nM.
